Data as given in patent publication US10101331B2, “Methods of evaluating patients using E-cadherin or vimentin” (AGIOS PHARMACEUTICALS, INC, priority 2012, dated 2018).

Assays:
Test in all cases: Lung cancer cell line panel screened for sensitivity to BPTES, 72 hr proliferation assay
Format in all cases: cell-based
NCI-H2009 = tested on: NCI-H2009
Description: (§1) Of these, 44 of the cell lines have been classified as non-small cell lung cancer (NSCLC). […] Four of the top 25 transcriptional/cellular pathways were related to the epithelial-mesenchymal transition (EMT) (ranks 1, 15, 23, 25 of FIG. 2). […] Low E-cadherin/high vimentin are well-defined markers of cells that have a mesenchymal phenotype as characterized for example, in any one of the following references: (Yauch et al., (2005) Cin Cancer Res 11:24; Savagner et al., (2010) Ann Oncol. 21(suppl 7): vii89; Thiery et al., (2002) Nature Reviews Cancer June vol 2:442).

NCI-H524 = tested on: NCI-H524
Description: as §1

NCI-H661 = tested on: NCI-H661
Description: as §1

NCI-H1395 = tested on: NCI-H1395
Description: as §1

NCI-H1436 = tested on: NCI-H1436
Description: as §1

COR-L279 = tested on: COR-L279
Description: as §1

NCI-H23 = tested on: NCI-H23
Description: as §1

NCI-H838 = tested on: NCI-H838
Description: as §1

NCI-H596 = tested on: NCI-H596
Description: as §1

NCI-H748 = tested on: NCI-H748
Description: as §1

SW-1573 = tested on: SW-1573
Description: as §1

NCI-H2171 = tested on: NCI-H2171
Description: as §1

NCI-H1838 = tested on: NCI-H1838
Description: as §1

NCI-H520 = tested on: NCI-H520
Description: as §1

NCI-H1581 = tested on: NCI-H1581
Description: as §1

NCI-H446 = tested on: NCI-H446
Description: as §1

NCI-H1092 = tested on: NCI-H1092
Description: as §1

NCI-H1568 = tested on: NCI-H1568
Description: as §1

A427 = tested on: A427
Description: as §1

NCI-H1573 = tested on: NCI-H1573
Description: as §1

NCI-H1618 = tested on: NCI-H1618
Description: as §1

NCI-H2170 = tested on: NCI-H2170
Description: as §1

COR-L23 = tested on: COR-L23
Description: as §1

NCI-H1993 = tested on: NCI-H1993
Description: as §1

H2228 = tested on: H2228
Description: as §1

NCI-H522 = tested on: NCI-H522
Description: as §1

DMS-153 = DMS-153 cell line
Description: as §1

NCI-H2347 = tested on: NCI-H2347
Description: as §1

NCI-H1563 = tested on: NCI-H1563
Description: as §1

NCI-H2126 = tested on: NCI-H2126
Description: as §1

## O=C(Cc1ccccc1)Nc1nnc(CCSCCc2nnc(NC(=O)Cc3ccccc3)s2)s1 [BPTES]
NCI-H2009
  μ/μmax: 0.96
NCI-H524
  μ/μmax: 0.53
NCI-H661; NCI-H661, 10 uM
  Max Inh @ 10 uM (%): 73%
  Mu/max @10 uM: 0.43
  μ/μmax @10 uM: 0.43
NCI-H661; NCI-H661 cell line
  μ/μmax: 0.43
NCI-H1395; NCI-H1395, 10 uM
  Max Inh @ 10 uM (%): 16%
  Mu/max @10 uM: 0.61
  μ/μmax @10 uM: 0.61
NCI-H1395; NCI-H1395 cell line
  μ/μmax: 0.61
NCI-H1436
  μ/μmax: 0.68
COR-L279
  μ/μmax: 0.88
NCI-H23; NCI-H23, 10 uM
  Max Inh @ 10 uM (%): 45%
  Mu/max @10 uM: 0.60
  μ/μmax @10 uM: 0.60
NCI-H23; NCI-H23 cell line
  μ/μmax: 0.60
NCI-H838; NCI-H838
  sensitivity to BPTES: moderate level of sensitivity
NCI-H838; NCI-H838, 10 uM
  Max Inh @ 10 uM (%): 37%
  Mu/max @10 uM: 0.66
  μ/μmax @10 uM: 0.66
NCI-H838; NCI-H838 cell line
  μ/μmax: 0.66
NCI-H596; NCI-H596, 10 uM
  Max Inh @ 10 uM (%): 13%
  Mu/max @10 uM: 0.84
  μ/μmax @10 uM: 0.84
NCI-H596; NCI-H596 cell line
  μ/μmax: 0.84
NCI-H748
  μ/μmax: 0.76
SW-1573; SW-1573, 10 uM
  Max Inh @ 10 uM (%): 68%
  Mu/max @10 uM: 0.12
  μ/μmax @10 uM: 0.12
SW-1573; SW-1573 cell line
  μ/μmax: 0.12
NCI-H2171
  μ/μmax: 0.88
NCI-H1838
  μ/μmax: 0.63
NCI-H520; NCI-H520, 10 uM
  Max Inh @ 10 uM (%): 14%
  Mu/max @10 uM: 0.79
  μ/μmax @10 uM: 0.79
NCI-H520; NCI-H520 cell line
  μ/μmax: 0.79
NCI-H1581
  μ/μmax: 0.51
NCI-H446
  μ/μmax: 0.84
NCI-H1092
  μ/μmax: 0.77
NCI-H1568; NCI-H1568, 10 uM
  Max Inh @ 10 uM (%): 50%
  Mu/max @10 uM: 0.25
  μ/μmax @10 uM: 0.25
NCI-H1568; NCI-H1568 cell line
  μ/μmax: 0.25
A427; A427, 10 uM
  Max Inh @ 10 uM (%): 86%
  Mu/max @10 uM: −0.49
  μ/μmax @10 uM: −0.49
A427; A427 cell line
  μ/μmax: −0.49
NCI-H1573
  μ/μmax: 0.92
NCI-H1618
  μ/μmax: 0.53
NCI-H2170
  μ/μmax: 0.82
COR-L23
  μ/μmax: 0.96
NCI-H1993
  μ/μmax: 0.89
H2228
  μ/μmax: 0.69
NCI-H522; NCI-H522, 10 uM
  Max Inh @ 10 uM (%): 39%
  Mu/max @10 uM: 0.61
  μ/μmax @10 uM: 0.61
NCI-H522; NCI-H522 cell line
  μ/μmax: 0.61
DMS-153
  μ/μmax: 0.58
NCI-H2347
  μ/μmax: 0.90
NCI-H1563; NCI-H1563, 10 uM
  Max Inh @ 10 uM (%): 8%
  Mu/max @10 uM: 0.92
  μ/μmax @10 uM: 0.92
NCI-H1563; NCI-H1563 cell line
  μ/μmax: 0.92
NCI-H2126
  μ/μmax: 1.00
